The source of these data is patent US20220177839A1, “COMPOSITION, CULTURE MEDIUM AND METHOD FOR INDUCING AND/OR AMPLIFYING TSCM IN VITRO” (SHANGHAI SINOBAY BIOTECHNOLOGY CO., LTD., priority 2019, published 2022).

In the assay the test system is human primary CD8^+T cells (CD3^+CD8^+). Nature of the assay: In-vitro induction and amplification of CD8+TSCM in culture media A to E (cell count, flow cytometry CD45RA, CCR7, CD95). In kind it is cell-based. The note with it: GSK-3β inhibitor. As for the experimental part:
1) Pre-prepared human primary T cells (Shanghai Sinobay Bio-Tech Co., Ltd., hereinafter referred to as “Sinobay”) were selected by a magnetic bead negative selection method to obtain human primary CD8^+T cells (CD3^+CD8^+), and the human primary CD8^+T cells (CD3^+CD8^+) were placed in a 96-well U-bottom culture plate, with 5×10^4 CD8^+T cells in each well;
2) subsequently, culture media A to E and magnetic beads coupled to an anti-CD3 antibody and an anti-CD28 antibody were added into the culture plates containing the CD8^+T cells, wherein a ratio of the number of the magnetic beads to the number of the cells was 1:1; and fresh culture media A to E were supplemented at Day 4, Day 7, Day 10 and Day 13 of cell culture; and
3) the cells were counted at Day 0, Day 7 and Day 14 of cell culture respectively, flow cytometry antibodies (CD45RA, CCR7 and CD95) for detecting TSCM were incubated, and the TSCM was detected by using a flow cytometry.
For orientation: In flow cytometry, cells or beads pass a laser one at a time.

Take `Nc1cccc(-c2cc3c(Oc4cccc(O)c4)ncnc3[nH]2)c1` [TWS119]: the “concentration range that effectively induces the formation of TSCM” value is 1 to 50 µM.
